Assay results reported in patent US9464064B2, “HCV helicase inhibitors and methods of use thereof” (University of Kansas, priority 2011, dated 2016).

Target: T1, HCV NS3 helicase NS3h_1b(con1) (Hepatitis C virus genotype 1b, UniProt Q9WMX2)
T1 construct: truncated C-terminally His-tagged NS3 proteins lacking the N-terminal protease, called NS3h; His-tag (C); made in house
Experiment: MBHA screen of NCI mechanistic set library at 20 μM (percent inhibition, compound interference)
Assay type: biochemical
Conditions: compounds at 20 μM; for Inh. (%) (Inhibition): calculated from Equation 1
How it was run: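 Molecular beacon-based DNA unwinding assay; compounds screened at 20 μM in triplicate, with DMSO-only negative and 500 nM dT20 positive controls. Fluorescence (ex 643/em 670 nm) was read before and 30 min after adding ATP to 1 mM. Percent inhibition came from the change relative to DMSO controls; interference from pre-ATP fluorescence versus DMSO controls.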

[1] = assay interference calculated with Equation 2 (fluorescence vs DMSO-only controls before ATP)
[2] = MBHA with DNA substrate, assay interference calculated with Equation 2

T1 sequence (Q9WMX2 1192-1657): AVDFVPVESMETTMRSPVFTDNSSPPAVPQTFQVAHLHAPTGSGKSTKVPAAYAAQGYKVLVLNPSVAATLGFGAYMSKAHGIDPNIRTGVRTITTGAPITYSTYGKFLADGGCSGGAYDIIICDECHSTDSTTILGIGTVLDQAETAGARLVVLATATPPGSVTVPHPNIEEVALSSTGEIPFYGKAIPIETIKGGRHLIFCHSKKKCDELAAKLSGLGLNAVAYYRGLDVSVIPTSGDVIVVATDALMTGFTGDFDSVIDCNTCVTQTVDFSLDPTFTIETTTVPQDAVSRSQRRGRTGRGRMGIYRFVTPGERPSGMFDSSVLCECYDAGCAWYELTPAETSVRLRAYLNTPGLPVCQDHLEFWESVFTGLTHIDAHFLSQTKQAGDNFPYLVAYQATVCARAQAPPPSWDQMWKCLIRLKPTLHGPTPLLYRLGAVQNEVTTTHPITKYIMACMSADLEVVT

Structure (SMILES)	Inh. (%) (Inhibition) (MBHA with a DNA substrate)	Int.* (Ratio) (Interference) [1]	Int.* (Ratio) (Interference) [2]	Inh. (%) (Inhibition) (MBHA with DNA substrate)	Inh. (%) (Inhibition) (MBHA with DNA substrate, 20 µM)
COc1cc2oc3cc(=O)cc4oc(-c5ccccc5)cc(c2c2c1CCC(c1ccccc1)O2)c43 (centres unmarked) [Compound 376248]	11.4	0.80	–	–	–
C/C(=N\NC(=S)N1CCN(C2CCCCCC2)CC1)c1ccccn1 [Compound 376265]	–	–	1.02	−13.7	–
CC1(C)NC(=O)N(CCCCCCN2C(=O)NC(C)(C)C2=O)C1=O [Compound 376791]	–	–	1.08	−7.3	–
N#CC(=S)Nc1ccc(Cl)c(Cl)c1 [Compound 379531]	11.6	0.89	–	–	–
C=C(CN(C)C)C(=O)c1ccccc1Cl.Cl [Compound 382007]	–	–	0.85	22.9	–
Br.CCN(CC)CC(C)(C)C(=O)/C=C/c1ccc(C)cc1 [Compound 382766]	–	–	0.90	19.2	–
C=C1CC[C@@H]2[C@](C)(CO)[C@H](O)CC[C@@]2(C)[C@@H]1C/C=C1/C(=O)OC[C@H]1O [Compound 383468]	9.4	0.98	–	–	–
O=C1C=Cc2ncccc2C1=O [Compound 400944]	−6.2	0.84	–	–	–
CC1=C2C(=CC(C)(C)[C@@H]2O)C(=O)[C@](C)(O)C12CC2 [Compound 400978]	–	–	1.10	17.9	–
COc1cc([C@H]2c3cc4c(cc3C[C@@H]3COC(=O)[C@H]32)OCO4)cc(OC)c1OC [Compound 403148]	–	–	0.94	16.8	–
C[C@@H]1CC[C@H]2C(C)(C)[C@H]3C[C@@]12CC[C@@]3(C)O [Compound 403883]	−4.0	0.93	–	–	–
Nc1ncnc2c1ncn2C1OC(CO)C(O)C1O (centres unmarked) [Compound 404241]	–	–	1.06	–	−11.9
N#CC(=C1C=CC(=NO)C=C1)c1ccc(Cl)cc1 [Compound 405158]	10.9	1.09	–	–	–
OCC1OC(n2cnc3c(=S)nc[nH]c32)C(O)C1O (centres unmarked) [Compound 406021]	–	–	1.10	1.7	–
O=c1c(O)c(-c2ccc(O)c(O)c2)oc2cc(O)ccc12 [Compound 407010]	–	–	0.90	19.4	–
CC(=O)OC1CC(n2cc(F)c(=O)[nH]c2=O)OC1CO (centres unmarked) [Compound 407335]	–	–	0.88	3.5	–
CC12CCC(O)CC1CCC1C2CCC2(C)C(C3=CC(=O)OC3)CCC12O (centres unmarked) [Compound 407806]	–	–	1.00	−11.1	–
Cc1cc(O)c2c(c1)C(=O)c1cc(O)cc(O)c1C2=O [Compound 408120]	−29.4	1.05	–	–	–
CC(C)(O)C=CC(=O)C(C)(O)C1C(O)CC2(C)C3CC=C4C(C=C(O)C(=O)C4(C)C)C3(C)C(=O)CC12C (centres unmarked) [Compound 521777]	–	–	0.90	5.8	–
CSC1SC[C@H]2C(=O)N(C)[C@@H](C(C)C)C(=O)OC[C@@H](NC(=O)c3cnc4ccccc4n3)C(=O)N[C@@H](C)C(=O)N(C)[C@@H]1C(=O)N(C)[C@@H](C(C)C)C(=O)OC[C@@H](NC(=O)c1cnc3ccccc3n1)C(=O)N[C@@H](C)C(=O)N2C (some centres unmarked) [Compound 526417]	–	–	0.86	55.2	–
N[C@@H](CN(O)N=O)C(=O)O [Compound 529469]	–	–	0.89	18.9	–
CC(C)c1ccc2nc3ccc(C(=O)NCCN(C)C)cn3c(=O)c2c1 [Compound 600305]	–	–	0.91	26.6	–
CCCCCn1cc2c3c(cccc31)C1C=C(C)CN(C)[C@@H]1C2.Cc1ccc(C(=O)OC(C(=O)O)C(OC(=O)c2ccc(C)cc2)C(=O)O)cc1 (centres unmarked) [Compound 600681]	–	–	0.95	−19.1	–
CCN(CC)CCOc1ccccc1/C=C/c1noc2ccccc12.Cl [Compound 601101]	–	–	0.97	−7.8	–
Cc1nc2c(nc1C)C(=O)c1ccccc1C2=O [Compound 602617]	–	–	0.97	3.9	–
CN(C)c1cccc(F)c1C(=O)NC(=O)Nc1ccc(Cl)cc1 [Compound 603108]	–	–	1.03	−8.6	–

Structure (SMILES)	Inh. (%) (Inhibition) (MBHA with a DNA substrate)	Int.* (Ratio) (Interference) [1]	Int.* (Ratio) (Interference) [2]	Inh. (%) (Inhibition) (MBHA with DNA substrate)	Inh. (%) (Inhibition) (MBHA with DNA substrate, 20 µM)
C[n+]1c(-c2ccc(/C=C/C=N/NC(=O)c3ccc(C(=O)N/N=C/C=C/c4ccc(-c5cn6ccccc6[n+]5C)cc4)cc3)cc2)cn2ccccc21.Cc1ccc(S(=O)(=O)O)cc1 [Compound 603169]	–	–	0.22	26.2	–
C[Si](C)(CN)CN.[Cl][Pt][Cl] [Compound 603577]	–	–	0.93	13.5	–
Cc1ccc(S(=O)(=O)NC(=O)NC2=NC(C)(C)N(c3ccc(Cl)c(Cl)c3)C(N)=N2)cc1 [Compound 603624]	7.5	0.92	–	–	–
O=c1[nH]c2ccc(O)cc2o1 [Compound 603719]	−5.7	1.20	–	–	–
C[C@H](CSC(=O)c1ccccc1)C(=O)N1c2ccccc2C[C@H]1C(=O)O [Compound 604535]	–	–	1.08	1.0	–
CCCCCCCCCCCCCCCCOP(=O)([O-])OCC[N+](C)(C)C [Compound 605583]	–	–	0.89	−10.9	–
Cl.Nc1ccc2cc3ccc(N)cc3nc2c1 [Compound 605756]	–	–	0.33	14.1	–
CC(C)(C)OC(=O)NC(Cc1ccccc1)C(=O)OCN1C(=O)C2C3C=CC(C2C1=O)C1C2C(=O)N(COC(=O)C(Cc4ccccc4)NC(=O)OC(C)(C)C)C(=O)C2C31 (centres unmarked) [Compound 607316]	–	–	0.97	−1.8	–
O=[N+]([O-])c1ccc(-c2cn(-c3ccc(Cl)cc3)cn2)cc1 [Compound 610744]	–	–	0.83	21.5	–
COc1cc(C(O)CCBr)c(OC)cc1C (centres unmarked) [Compound 611750]	–	–	0.94	−8.1	–
C/C1=C\[C@H](C)C[C@H](C)OC(=O)CC(c2ccc(O)cc2)NC(=O)[C@@H](Cc2c(Br)[nH]c3ccccc23)N(C)C(=O)[C@H](C)NC(=O)[C@@H](C)C1 (some centres unmarked) [Compound 613009]	−21.7	0.94	–	–	–
CC(=O)Oc1ccc(C(c2ccc(OC(C)=O)cc2)c2ccccn2)cc1 [Compound 614826]	−4.8	1.06	–	–	–
CC1(C)C(O)OC(O)C1(C)C (centres unmarked) [Compound 614928]	–	–	0.99	19.1	–
C=C(C#N)C(=O)OCC(CC)CC.C=C(C#N)C(=O)OCC(CC)CC.CS(C)=O.CS(C)=O.Nc1c(N=Nc2ccc(-c3ccc(N=Nc4cc(S(=O)(=O)[O-])c5ccccc5c4N)cc3)cc2)cc(S(=O)(=O)[O-])c2ccccc12.[Pt+2] [Compound 615593]	–	–	0.91	−17.7	–
OC(CBr)C(O)C(O)C(O)CBr (centres unmarked) [Compound 616232]	–	–	1.02	−0.6	–
CC(C)(C)[Si](C)(C)OCC1CCC(n2cnc3c(N)ncnc32)O1 (centres unmarked) [Compound 616355]	–	–	1.01	−12.6	–
CCCCCC/C=C\CCCCCCCCCc1cccc(OC)c1O [Compound 617540]	−28.4	1.11	–	–	–
Cl.Nc1nccc2c1ncn2C1C=C(CO)C(O)C1O (centres unmarked) [Compound 617989]	–	–	0.96	−12.9	–
COc1ccc2c(c1)C=C([N+](=O)[O-])C(C1OC(C)(C)OC1C1COC(C)(C)O1)O2 (centres unmarked) [Compound 618261]	−6.4	0.95	–	–	–
O=C1C(Br)=C(Br)C(=O)c2ccccc21 [Compound 618332]	–	–	1.03	−18.7	–
C/C=C(\CCC1NCCc2c1[nH]c1ccccc21)[Si](C)(C)C (centres unmarked) [Compound 619165]	–	–	0.89	13.6	–
[Cl-].[Cl-].[Cl-].[Rh+3].c1ccc(-c2ccnc3c2ccc2c(-c4ccccc4)ccnc23)cc1.c1ccc(-c2ccnc3c2ccc2c(-c4ccccc4)ccnc23)cc1.c1ccc(-c2ccnc3c2ccc2c(-c4ccccc4)ccnc23)cc1 [Compound 619179]	–	–	0.44	23.8	–
O=C([O-])c1cc(I)cc(I)c1O.O=C([O-])c1cc(I)cc(I)c1O.[Mn+2] [Compound 619907]	−27.2	0.86	–	–	–
COC(=O)C[S+]([O-])c1ccccc1 (centres unmarked) [Compound 620050]	−3.3	0.96	–	–	–
N#CCCN(CCC#N)c1ccc(C=Nc2ccc(F)cc2)cc1 [Compound 620277]	–	–	0.93	17.1	–
CCOC(=O)c1ccc(N=Cc2ccc(N(CCC#N)CCC#N)cc2)cc1 [Compound 620279]	−45.1	1.17	–	–	–
